{"source": "patent EP1071442B9", "about": "“METHODS AND COMPOSITIONS FOR PEPTIDE SYNTHESIS (T-20)” (priority 1998, dated 1999)", "key": {"[1]": {"experiment": "thermal stability of T-20 fragments (water-saturated or dry) at elevated temperatures, purity change by HPLC", "assay_type": "physicochemical", "description": "A series of experiments were conducted at to characterize the thermal stability of the intermediate T-20 fragments. T-20 fragments were saturated with water, filtered and then placed in enclosed containers and exposed to elevated temperatures. At several time points samples were collected and analyzed by HPLC methods to access the purity changes. Stability of the dry T-20 fragments was also characterized by thermogravimetric analysis (TGA)."}}, "note": "Residues, ends and D or L forms follow the SMILES beside them. *: point of attachment. NHTrityl = c1ccc(C(N*)(c2ccccc2)c2ccccc2)cc1; Fmoc = O=C(OCC1c2ccccc2-c2ccccc21)*; Boc = CC(C)(C)OC(=O)*; OtBu = CC(C)(C)O*; tBu = CC(C)(C)*"}
{"smiles": "CC(C)C[C@H](NC(=O)[C@H](COC(C)(C)C)NC(=O)[C@H](C)NC(=O)[C@H](Cc1cn(C(=O)OC(C)(C)C)c2ccccc12)NC(=O)[C@H](CCCCNC(=O)OC(C)(C)C)NC(=O)[C@H](CC(=O)OC(C)(C)C)NC(=O)OCC1c2ccccc2-c2ccccc21)C(=O)N[C@@H](Cc1cn(C(=O)OC(C)(C)C)c2ccccc12)C(=O)N[C@@H](CC(=O)NC(c1ccccc1)(c1ccccc1)c1ccccc1)C(=O)N[C@@H](Cc1cn(C(=O)OC(C)(C)C)c2ccccc12)C(=O)N[C@@H](Cc1ccccc1)C(N)=O", "note": "[F(27-36)-NH2] (Fmoc-D(OtBu)K(Boc)W(Boc)AS(tBu)LW(Boc)D(NHTrityl)W(Boc)F-NH2)", "values": [{"measurement": "degradation", "setting": "[1]; after 24 hours at 80 °C", "result": 1.4, "unit": "%"}, {"measurement": "stability to drying", "setting": "[1]; drying at 40 °C", "result": "stable"}]}
{"smiles": "CC(C)C[C@H](NC(=O)[C@H](CCC(=O)OC(C)(C)C)NC(=O)[C@H](CC(C)C)NC(=O)[C@H](CC(C)C)NC(=O)[C@H](CCC(=O)OC(C)(C)C)NC(=O)[C@H](CCC(=O)NC(c1ccccc1)(c1ccccc1)c1ccccc1)NC(=O)[C@H](CCC(=O)OC(C)(C)C)NC(=O)[C@H](CC(=O)NC(c1ccccc1)(c1ccccc1)c1ccccc1)NC(=O)[C@H](CCCCNC(=O)OC(C)(C)C)NC(=O)[C@H](CCC(=O)OC(C)(C)C)NC(=O)OCC1c2ccccc2-c2ccccc21)C(=O)O", "note": "[F(17-26)-OH] (Fmoc-E(OtBu)K(Boc)D(NHTrityl)E(OtBu)E(NHTrityl)E(OtBu)LLE(OtBu)L-OH)", "values": [{"measurement": "stability in 1% TFA/DCM", "result": 1, "unit": "%/day"}]}
